Consider one molecule from patent publication US11512053B2, “Arginine methyltransferase inhibitors and uses thereof” (priority 2013, dated 2022).

Where two headings read alike, the source gives them in different places.

One may read the IC50 as the midpoint of a concentration-inhibition curve.

The experiment deals with T1, human CARM1 (PRMT4) (Flag- and His-tagged) (Homo sapiens, UniProt Q86X55).
T1 construct: Flag-CARM1-His; made in house; host or cells: HEK 293F cells (BacMam baculovirus)
T1 sequence (Q86X55 1-585 isoform Q86X55-1): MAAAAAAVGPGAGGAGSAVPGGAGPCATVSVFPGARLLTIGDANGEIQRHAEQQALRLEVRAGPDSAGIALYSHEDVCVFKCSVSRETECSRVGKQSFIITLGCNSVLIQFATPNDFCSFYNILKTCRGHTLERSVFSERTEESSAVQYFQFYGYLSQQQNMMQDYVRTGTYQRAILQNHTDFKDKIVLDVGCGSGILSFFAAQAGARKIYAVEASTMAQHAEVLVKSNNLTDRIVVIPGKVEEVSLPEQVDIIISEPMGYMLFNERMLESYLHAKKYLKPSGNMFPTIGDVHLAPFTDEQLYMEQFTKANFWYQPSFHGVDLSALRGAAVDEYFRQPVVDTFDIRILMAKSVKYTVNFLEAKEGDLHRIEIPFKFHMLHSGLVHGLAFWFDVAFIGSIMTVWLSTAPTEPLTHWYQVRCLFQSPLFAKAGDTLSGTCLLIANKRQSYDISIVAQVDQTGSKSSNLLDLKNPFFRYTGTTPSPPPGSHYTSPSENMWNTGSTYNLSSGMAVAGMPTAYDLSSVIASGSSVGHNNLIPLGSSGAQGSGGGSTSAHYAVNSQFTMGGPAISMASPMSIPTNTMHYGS
The experiment can be described thus: CARM1 Biochemical Assay (3H-SAM Flashplate, peptide substrate). The source says: General Materials. S-adenosylmethionine (SAM), S-adenosylhomocysteine (SAH), bicine, Tween20, dimethylsulfoxide (DMSO), bovine skin gelatin (BSG), sodium butyrate and Tris(2-carboxyethyl)phosphine hydrochloride solution (TCEP) were purchased from Sigma-Aldrich at the highest level of purity possible. ^3H-SAM was purchase from American Radiolabeled Chemicals with a specific activity of 80 Ci/mmol. 384-well streptavidin Flashplates were purchased from PerkinElmer.
Substrates. Peptide representative of human histone H3 residues 16-30 was synthesized with an N-terminal linker-affinity tag motif and a C-terminal amide cap by 21st Century Biochemicals. The peptide was purified by high-performance liquid chromatography (HPLC) to greater than 95% purity and confirmed by liquid chromatography mass spectrometry (LC-MS). The sequence was Biot-Ahx-[…]-amide and contained a monomethylated arginine at position 26 (SEQ ID NO.:14).
Molecular Biology: Human CARM1 (PRMT4) (NM_199141.1) transcript clone was amplified from an HEK 293 cDNA library, incorporating a flanking 5′ sequence encoding a FLAG tag ([…]) (SEQ ID NO.:6) fused directly to Ala 2 of CARM1 and 3′ sequence encoding a hexa His sequence ([…]) (SEQ ID NO.:15) fused directly to Ser 608. The gene sequence encoding isoform1 containing a deletion of amino acids 539-561 was amplified subsequently and subcloned into pFastBacMam (Viva Biotech).
Protein Expression. Recombinant baculovirus were generated according to Bac-to-Bac kit instructions (Life Technologies). […] Infections were carried out at 37° C. for 48 hours, harvested by centrifugation, and stored at −80° C. for purification.
Protein Purification. […] Column was washed with 500 mM NaCl in buffer A and Flag-CARM1-His was eluted with 200 ug/ml FLAG peptide in buffer A. Pooled fractions were dialyzed in 20 mM Tris, 150 mM NaCl, 5% glycerol and 1 mM DTT, pH 7.8. The purity of recovered protein was 94.
General Procedure for CARM1 Enzyme Assays on Peptide Substrates. The assays were all performed in a buffer consisting of 20 mM Bicine (pH=7.6), 1 mM TCEP, 0.005% BSG, and 0.002% Tween 20, prepared on the day of use. Compounds in 100% DMSO (1 ul) were spotted into a polypropylene 384-well V-bottom plates (Greiner) using a Platemate Plus outfitted with a 384-channel head (Thermo Scientific). DMSO (1 ul) was added to Columns 11, 12, 23, 24, rows A-H for the maximum signal control and 1 ul of SAH, a known product and inhibitor of CARM1, was added to columns 11, 12, 23, 24, rows I-P for the minimum signal control. A cocktail (40 ul) containing the CARM1 enzyme was added by Multidrop Combi (Thermo-Fisher). The compounds were allowed to incubate with CARM1 for 30 min at room temperature, then a cocktail (10 ul) containing ^3H-SAM and peptide was added to initiate the reaction (final volume=51 ul). The final concentrations of the components were as follows: CARM1 was 0.25 nM, ^3H-SAM was 30 nM, peptide was 250 nM, SAH in the minimum signal control wells was 1 mM, and the DMSO concentration was 2%. The assays were stopped by the addition of non-radiolabeled SAM (10 ul) to a final concentration of 300 uM, which dilutes the ^3H-SAM to a level where its incorporation into the peptide substrate is no longer detectable. 50 ul of the reaction in the 384-well polypropylene plate was then transferred to a 384-well Flashplate and the biotinylated peptides were allowed to bind to the streptavidin surface for at least 1 hour before being washed once with 0.1% Tween20 in a Biotek ELx405 plate washer. The plates were then read in a PerkinElmer TopCount plate reader to measure the quantity of ^3H-labeled peptide bound to the Flashplate surface, measured as disintegrations per minute (dpm) or alternatively, referred to as counts per minute (cpm).
Where dpm=disintegrations per minute, cmpd=signal in assay well, and min and max are the respective minimum and maximum signal controls. […]

In turn, `CN(CCN)Cc1c[nH]nc1CCc1ccccc1` [Compound 9] displayed an IC50 of 1.01 to 3 µM. This molecule came in with an IC50 (single experiment or average of multiple experiments) of 3 µM.
